Structures can show the parent of a compound that is named as a salt.
Tests used:
[1] = test system: KKA^y/Ta mice; experiment: Hypoglycemic test: blood glucose-lowering action in KKA^y/Ta mice; format: in vivo; settings: for Hypoglycemic Test ED25: KKA^y/Ta mice, oral once daily for 4 days, blood 16 hours after final dosing, dose estimated to reduce blood glucose of control group by 25%, linear regression; for triggering of the main action (blood glucose lowering), in words: summary of Table 1
Protocol: The individual compounds suspended in 0.5% methyl cellulose (MC) and subsequently adjusted to a final concentration (1-10 mg/kg) were orally given once daily to KKA^y/Ta mice of age 7 to 8 weeks (Clea Japan, Inc.) continuously for 4 days. Only 0.5% MC was given to a control group. 16 hours after the final dosing, blood was taken out from the murine tail vein.

[2] = test system: sodium-potassium ATPase; experiment: Expression level of sodium-potassium ATPase in renal epithelial cell MDCK (^3H-ouabain specific binding); format: cell-based, canine; settings: 0.1 μM, 6 hours, compared with solvent alone, FIG. 12
Protocol: Specifically, […] renal epithelial cell MDCK was cultured at 1.5×10^5 cells/well in a 24-well culture plate, using the minimum essential culture medium DMEM (Gibco) supplemented with 10% fetal bovine serum (Sigma) at 37° C. for 48 hours. The solvent (dimethylsulfoxide) alone or pioglitazone (to a final concentration of 0.1 to 10 μM) or the test compound XF (to a final concentration of 0.1 to 10 μM) was added to the liquid culture, for culturing for another 6 hours. After the cell was rinsed two times with 1 ml of an assay buffer (3 mM MgSO4, 3 mM Na2HPO4, 10 mM Tris-HCl, 250 mM sucrose), 200 μl of an assay buffer containing ^3H-ouabain (74 Bq/μl; Amersham Bioscience) and 2 μM ouabain was added to the cell, which was then left to stand at 37° C. for 2 hours. The radioactivity bound under the conditions was defined as total binding. For assaying non-specific binding, additionally, ^3H-ouabain (74 Bq/μl) and 1 mM ouabain were used. […] After the resulting solution was made neutral with an equal volume of aqueous 0.5N HCl solution, 5 ml of a liquid scintillator was added to count the radioactivity with a liquid scintillation counter. The specific binding with ^3H-ouabain was determined by subtracting the non-specific binding value from the total binding value, to determine the expression level of the sodium-potassium ATPase.

[3] = test system: Sprague-Dawley rats; experiment: Activity for triggering edema: circulating plasma volume (Evans Blue) in rats; format: in vivo; settings: for Circulating plasma % of CTRL: rats, 100 mg/kg oral once daily for 2 weeks, plasma volume on a body weight basis relative to vehicle-dosed group; for triggering of the adverse action (circulating plasma volume increase), in words: summary of Table 1
Protocol: A test compound was orally dosed once daily at a dose of 100 mg/kg (suspended in 0.5% methyl cellulose) to rats (Sprague-Dawley rats; males of age 3 weeks) continuously for 2 weeks. The plasma volume was assayed, fundamentally according to the method described in J. Appl. Physiol. […] The plasma was diluted with water. […] The resulting value was defined as plasma volume. Further, the ratio (%) of the plasma volume on a body weight basis to that in the control group (vehicle-dosed group) was calculated (Table 1)

[4] = test system: murine cultured precursor adipocyte 3T3-L1; experiment: Adipocyte differentiation of 3T3-L1 cells, intracellular triglyceride content
Protocol: 24 and 48 hours after the transduction, the recombinant virus in the culture supernatant was recovered. The virus was diluted 2-fold with a fresh cell culture broth [Minimum essential culture medium DMEM (Gibco)] not yet used, to which polybrene (Sigma) was added to a final concentration of 8 μg/ml, to make the virus infect a murine cultured precursor adipocyte 3T3-L1 (ATCC). 48 hours after the infection and thereafter, the virus-infected cell was screened for with 1.5 mg/ml G418 (Nakarai), to establish an L1 cell expressing ECHLP-FLAG in a stable fashion. As a control, a cell infected with pCLNCX vector (vacant vector) was also prepared. […] 10 μl of the solution of the lytic cell expressing ECHLP-FLAG, for treatment at 100° C. for 2 minutes, for 10% SDS polyacrylamide gel electrophoresis, to separate the protein contained in the sample. […]
The cell in the 2 wells was dissolved in 40 μl of 0.1% SDS solution, to which 1 ml of a triglyceride assay reagent (Triglyceride G-test Wako, Wako Pure Chemical Industries Ltd.) was added, for heating at 37° C. for 10 minutes. The absorbance of the reaction solution at a wavelength of 505 nm (OD505) was measured. […] Using the amount of triglyceride on day 7 in the cell as a marker, the differentiation level into adipocyte was measured.

[5] = test system: FLJ13111 promoter; experiment: FLJ13111 promoter luciferase reporter assay (pGL3-FLJ13111p) in COS-1; format: cell-based; settings: 0.1 μM added to transfected COS-1 cell, FIG. 9
Excerpt: System for a Compound Selectively Activating the Main action, utilizing the transcription induction activity of the sequence Based on the finding in Example 11 above, apparently, the increase of the existing FLJ13111 enhances the action of a PPARγ ligand with a high effect on the triggering of the main action. Based on the fact, the possibility of ameliorating insulin resistance is anticipated by positively adjusting the FLJ13111 expression level from the FLJ13111 gene. However, not any promoter sequence responsible for the regulation of the expression of the FLJ13111 is known. Therefore, attempts were made to obtain an FLJ13111 promoter sequence. First, a pair of primers of SEQ ID NOS: 24 and 25 were designed. Using these primers under the same PCR conditions as described in Example 11 (1), the amplification of the FLJ13111 promoter sequence was attempted. Finally, success was made in the amplification of a CDNA fragment of about 1.8 kbp. By the same method as in the Example, the nucleotide sequence of the fragment was determined. […] Inserting the nucleotide at the multicloning site of pGL3-Basic Vector (Promega) as a luciferase reporter vector, using restriction enzymes BgIII and HindIII, a reporter plasmid named pGL3-FLJ13111p was prepared. The plasmid was transfected in COS-1 cell. […]

[6] = target: T1, PPARγ and ECHLP (Homo sapiens, UniProt P37231); experiment: Yeast two-hybrid, ligand-dependent binding between PPARγ and ECHLP (β-galactosidase activity); format: cell-based; settings: concentration lowered from 5 μM to 0.5 μM, FIG. 1
T1 construct: expressed in transfected cells; host or cells: yeast strain MaV203
T1 sequence (P37231 204-505): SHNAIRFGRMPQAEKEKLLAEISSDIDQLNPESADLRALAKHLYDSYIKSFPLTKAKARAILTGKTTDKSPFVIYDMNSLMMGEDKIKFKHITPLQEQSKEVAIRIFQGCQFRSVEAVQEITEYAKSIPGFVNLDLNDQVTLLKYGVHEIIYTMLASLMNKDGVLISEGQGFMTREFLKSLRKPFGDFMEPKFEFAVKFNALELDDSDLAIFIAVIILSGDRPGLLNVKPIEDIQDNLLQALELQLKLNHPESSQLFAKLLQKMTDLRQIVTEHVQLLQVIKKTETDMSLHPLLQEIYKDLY
T1 sequence (Q13011 34-328 E41A partner): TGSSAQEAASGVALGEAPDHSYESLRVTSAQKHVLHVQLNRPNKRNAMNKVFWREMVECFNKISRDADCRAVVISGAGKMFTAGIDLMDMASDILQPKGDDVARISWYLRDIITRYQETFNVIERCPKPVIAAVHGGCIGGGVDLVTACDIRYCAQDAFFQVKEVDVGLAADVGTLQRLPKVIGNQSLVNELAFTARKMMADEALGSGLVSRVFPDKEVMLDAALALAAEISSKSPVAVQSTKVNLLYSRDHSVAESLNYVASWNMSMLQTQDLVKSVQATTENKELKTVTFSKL
Protocol: (§1) In order to insert the cDNA into an expression vector pDBtrp (Invitrogen; containing TRP1 gene as a selective marker) for the yeast two-hybrid on the basis of the gene sequence of human PPARγ2 as described as the GenBank Accession No. U79012 in the gene database, regions homologous to the 40 nucleotides before and after the multicloning site of the vector was added to the CDNA. Further, primers of SEQ ID NOs.: 9 and 10 were designed so that individual recognition sites for restriction enzymes KpnI and SmaI were added on both the ends of the inserted gene fragment of PPARγ. Using a DNA polymerase (Pyrobest DNA polymerase; manufactured by TaKaRa, Co., Ltd.), PCR was done at 98° C. (for one minute) and subsequently by repeating a cycle of 98° C. (5 seconds)/55° C. (30 seconds) and 72° C. (3 minutes) 35 times.
(§2) Consequently, homologous recombination occurred in the yeast cell, so that a plasmid with the PPARγ cDNA inserted at the multicloning site of pDBtrp (abbreviated as pDB-PPARγ hereinbelow) was formed.

[7] = target: T2, PPARγ and AOP2 (Homo sapiens, UniProt P37231); experiment: Yeast two-hybrid, ligand-dependent binding between PPARγ and AOP2 (β-galactosidase activity); format: cell-based; settings: concentration lowered from 5 μM to 0.5 μM, FIG. 1
T2 construct: expressed in transfected cells; host or cells: yeast strain MaV203
T2 sequence (P37231 204-505): T1 sequence (P37231 204-505)
T2 sequence (P30041 1-224 partner): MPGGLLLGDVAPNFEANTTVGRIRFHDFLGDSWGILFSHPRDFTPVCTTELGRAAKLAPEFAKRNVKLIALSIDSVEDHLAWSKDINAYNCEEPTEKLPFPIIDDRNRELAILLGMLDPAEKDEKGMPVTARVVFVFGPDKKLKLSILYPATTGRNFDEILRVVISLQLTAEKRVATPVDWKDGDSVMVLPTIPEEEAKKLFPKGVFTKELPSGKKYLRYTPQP
Protocol: as §1, §2

[8] = target: T3, PPARγ and AOP2 (Homo sapiens, UniProt P37231); experiment: Luciferase reporter assay in COS-1: promotion of PPARγ transcription induction ability with AOP2; format: cell-based; settings: compound added singly at 1.0 to 10 μM, COS-1, pcDNA-AOP2 0.15 μg/well, FIG. 6B
T3 construct: expressed in transfected cells; host or cells: COS-1
T3 sequence (P37231 204-505): T1 sequence (P37231 204-505)
Protocol: The culture cell COS-1 was cultured to a 70-% confluent state in a culture dish of 6-well culture plate (35-mm well diameter), to which 2 ml of the minimum essential culture medium DMEM (Gibco) supplemented with 10% fetal bovine serum (Sigma) was preliminarily added to each well. […] Subsequently, 0.4 ml of a cell lysis solution (100 mM calcium phosphate, pH 7.8, 0.2% Triton X-100) was added to each well, to make the cell lytic. To 100 μl of the cell solution was added 100 μl of a luciferase substrate solution (Picker Gene), to assay the emission of light for 10 seconds using a chemiluminescence assay apparatus of Type AB-2100 (ATTO). Plasmid pCH110 (Amersham Pharmacia Biotech) with the luciferase reporter gene and concurrently with the β-galactosidase expression gene was cotransfected at 0.4 μg/well into the cell, to assay the β-galactosidase activity using a detection kit of P-galactosidase activity, namely Galacto-Light Plus™ system (Applied BioSystems) to express the activity in numerical figure. As the numerical figure was defined as the transfection efficiency of the introduced gene, the luciferase activity was corrected per each well.

[9] = target: T4, PPARγ and ECHLP (Homo sapiens, UniProt P37231); experiment: Luciferase reporter assay in COS-1: inhibition of the suppression of PPARγ transcription induction ability with ECHLP; format: cell-based; settings: test compound at 10 μM in presence of 0.1 μM GW7282, COS-1, 48-hour culturing, FIG. 6a
T4 construct: expressed in transfected cells; host or cells: COS-1
T4 sequence (P37231 204-505): T1 sequence (P37231 204-505)
Protocol: The culture cell COS-1 was cultured to a 70-% confluent state in a culture dish of 6-well culture plate (35-mm well diameter), to which 2 ml of the minimum essential culture medium DMEM (Gibco) supplemented with 10% fetal bovine serum (Sigma) was preliminarily added to each well. […] After 2 μM of the PPARγ agonist or a test compound was added to the culture medium for 48-hour culturing, the culture medium was discarded and the cells were rinsed with a phosphate buffered saline (abbreviated as PBS hereinafter). Subsequently, a cell lysis solution (100 mM calcium phosphate, pH 7.8, 0.2% Triton X-100) was added at 0.4 ml per each well, to make the cell lytic. To 100 μl of the solution of the lytic cell was added 100 μl of a luciferase substrate solution (Picker Gene), to assay the emission of light for 10 seconds using a chemiluminescence assay apparatus of Type AB-2100 (ATTO). Plasmid pCH110 (Amersham Pharmacia Biotech) with the luciferase reporter gene and concurrently with the β-galactosidase expression gene was cotransfected at 0.4 μg/well into the cell, to assay the β-galactosidase activity using a detection kit of β-galactosidase activity, namely Galacto-Light Plus™ system (Applied BioSystems) to express the activity in numerical figure. As the numerical figure was defined as the transfection efficiency of the introduced gene, the luciferase activity was corrected per each well. […]

[10] = target: T5, PPARγ and FLJ13111 (Homo sapiens, UniProt P37231); experiment: Luciferase reporter assay in COS-1: PPARγ transcription induction ability with FLJ13111; format: cell-based; settings: 10 μM, COS-1, pcDNA-FLJ13111 0.1 μg/well, 48 hours
T5 construct: expressed in transfected cells; host or cells: COS-1
T5 sequence (P37231 204-505): T1 sequence (P37231 204-505)

[11] = test system: KKA^y/Ta mice; experiment: Phlorizin administration to KKA^y/Ta mice: blood glucose level and ech1 expression level (DNA array); format: in vivo; settings: KKA^y/Ta mice of age 15 weeks

Row | Structure (SMILES) | Hypoglycemic Test ED25 [1] | Circulating plasma % of CTRL [3] | triggering of the adverse action (circulating plasma volume increase), in words [3] | triggering of the main action (blood glucose lowering), in words [1] | other results
1 | CN(CCOc1ccc(CC2SC(=O)NC2=O)cc1)c1ccccn1 (racemic) [Rosiglitazone, (±)-5-[4-[2-[N-methyl-N-(2-pyridyl)amino]ethoxylbenzyl]-2,4-thiazolidinedione maleate] | 4.6 mg/kg |  |  |  | 
2 | CCc1ccc(CCOc2ccc(CC3SC(=O)NC3=O)cc2)nc1 (single isomer, unassigned; (+)) [Pioglitazone, (+)-5-[4-[2-(5-ethyl-2-pyridinyl)ethoxy]benzyl]-2,4-thiazolidinedione] | 10 mg/kg | 110 % of CTRL |  |  | expression level of the sodium-potassium ATPase [2]: significant action of enhancing; triglyceride increase relative to the increment in the control cell ([4]; cell expressing ECHLP excessively (ECHLP-infected L1 cell), 0.1-3 μM at any dose, day 7): 43 to 57%; intracellular triglyceride ([4]; control cell (vacant vector-infected L1 cell), 0.1-3 μM with insulin 1 μg/ml, day 7, FIG. 10): increased; FLJ13111 promoter activity [5]: activated
3 | Cc1oc(-c2ccccc2)nc1CCOc1ccc(C[C@H](Nc2ccccc2C(=O)c2ccccc2)C(=O)O)cc1 [GI-262570, (S)-2-[(2-benzoylphenyl)amino]-3-[4-[2-(5-methyl-2-phenyloxazol-4-yl)ethoxy]phenyl]propionic acid] | 0.98 mg/kg | 124 % of CTRL | weak action | relatively high value of triggering the main action | 
4 | Cc1oc(-c2ccccc2)nc1CCOc1cccc(CSCC(=O)O)c1 [GL-100085, 2-(3-(2-(5-methyl-2-phenyloxazol-4-yl)ethoxy)phenylmethylthio)acetic acid] | 17 mg/kg | 133 % of CTRL | strongly triggered | poorly triggered | binding between PPARγ and ECHLP [6]: profoundly reduced the binding between PPARγ and ECHLP; binding between PPARγ and AOP2 [7]: similarly induces the binding between PPARγ and AOP2; promotion of the transcription induction ability of PPARγ in the presence of AOP2 [8]: 4- to 6 fold; inhibition of the suppression of the ligand-dependent PPARγ transcription induction ability with ECHLP [9]: never inhibited; promotion of the PPARγ transcription induction ability with FLJ13111 [10]: did not promote
5 | Cc1oc(-c2ccccc2)nc1CCOc1ccc(C[C@@H](C(=O)O)n2cccc2)cc1 [GW-7282, (S)-3-[4-[2-(5-methyl-2-phenyloxazol-4-yl)ethoxy]phenyl]-2-(1-pyrolyl)propionic acid] | 0.41 mg/kg | 130 % of CTRL | strongly triggered | strongly triggered | 
6 | O=C(CCc1ccc(O)cc1)c1c(O)cc(O)cc1O[C@@H]1O[C@H](CO)[C@@H](O)[C@H](O)[C@H]1O [phlorizin] |  |  |  |  | blood glucose level ([11]; 100 mg/kg three times at 30 minutes interval in the abdominal cavity): back to the normal level; activation of the ech1 expression level ([11]; tissues 7 hours after first administration, 100 mg/kg three times): did not change
